Measured values reported in ChEMBL document CHEMBL1138883, “Synthesis and biological evaluation of new asymmetrical bisintercalators as potential antitumor drugs” (2006).
Active and inactive are the calls of the source. The calls are words filed in the database; no cut-off is given here.

What was measured:
[1] = Ratio of K(app) for [A-T] to [G-C]
PC-3 [2] = assay: Cytotoxicity against PC3 cells by SRB assay after 48 hrs; format: functional; conditions: Homo sapiens, PC-3, 48 h
PC-3 [3] = assay: Induction of apoptosis in PC3 cells measured as percentage of living cells by biparametric PI/Annexin V assay at 2.6 uM after 4 hrs; format: functional, Homo sapiens
PC-3 [4] = assay: Induction of apoptosis in PC3 measured as percentage of early apoptotic cells by biparametric PI/Annexin V assay at 2.6 uM after 48 hrs; format: functional, Homo sapiens
PC-3 [5] = assay: Induction of apoptosis in PC3 measured as percentage of late apoptotic cells by biparametric PI/Annexin V assay at 2.6 uM after 48 hrs; format: functional, Homo sapiens
PC-3 [6] = assay: Induction of apoptosis in PC3 measured as percentage of necrotic cells by biparametric PI/Annexin V assay at 2.6 uM after 4 hrs; format: functional, Homo sapiens
PC-3 [7] = assay: Reduction in PC3 cell viability after 48 hrs by FDA flow cytometer assay; format: functional, cell-based; conditions: Homo sapiens
PC-3 [8] = assay: Induction of apoptosis in PC3 measured as percentage of early apoptotic cells by biparametric PI/Annexin V assay at 2.6 uM after 24 hrs; format: functional, Homo sapiens
PC-3 [9] = assay: Induction of apoptosis in PC3 measured as percentage of early apoptotic cells by biparametric PI/Annexin V assay at 2.6 uM after 8 hrs; format: functional, Homo sapiens
PC-3 [10] = assay: Induction of apoptosis in PC3 measured as percentage of necrotic cells by biparametric PI/Annexin V assay at 2.6 uM after 48 hrs; format: functional, Homo sapiens
PC-3 [11] = assay: Induction of apoptosis in PC3 measured as percentage of early apoptotic cells by biparametric PI/Annexin V assay at 2.6 uM after 4 hrs; format: functional, Homo sapiens
PC-3 [12] = assay: Induction of early apoptosis in PC3 cells by DNA fragmentation assay; format: functional, cell-based; conditions: Homo sapiens
PC-3 [13] = assay: Induction of apoptosis in PC3 cells measured as percentage of living cells by biparametric PI/Annexin V assay at 2.6 uM after 8 hrs; format: functional, Homo sapiens
PC-3 [14] = assay: Induction of apoptosis in PC3 cells measured as percentage of living cells by biparametric PI/Annexin V assay at 2.6 uM after 48 hrs; format: functional, Homo sapiens
PC-3 [15] = assay: Induction of apoptosis in PC3 measured as percentage of necrotic cells by biparametric PI/Annexin V assay at 2.6 uM after 24 hrs; format: functional, Homo sapiens
PC-3 [16] = assay: Induction of apoptosis in PC3 measured as percentage of necrotic cells by biparametric PI/Annexin V assay at 2.6 uM after 8 hrs; format: functional, Homo sapiens
PC-3 [17] = assay: Induction of apoptosis in PC3 measured as percentage of late apoptotic cells by biparametric PI/Annexin V assay at 2.6 uM after 4 hrs; format: functional, Homo sapiens
PC-3 [18] = assay: Induction of apoptosis in PC3 cells measured as percentage of living cells by biparametric PI/Annexin V assay at 2.6 uM after 24 hrs; format: functional, Homo sapiens
PC-3 [19] = assay: Induction of apoptosis in PC3 measured as percentage of late apoptotic cells by biparametric PI/Annexin V assay at 2.6 uM after 8 hrs; format: functional, Homo sapiens
PC-3 [20] = assay: Induction of apoptosis in PC3 measured as percentage of late apoptotic cells by biparametric PI/Annexin V assay at 2.6 uM after 24 hrs; format: functional, Homo sapiens
PC-3 [21] = assay: Induction of apoptosis in PC3 measured as percentage of early apoptotic cells by biparametric PI/Annexin V assay at 1.6 uM after 4 hrs; format: functional, Homo sapiens
PC-3 [22] = assay: Induction of apoptosis in PC3 measured as percentage of necrotic cells by biparametric PI/Annexin V assay at 1.6 uM after 24 hrs; format: functional, Homo sapiens
PC-3 [23] = assay: Induction of apoptosis in PC3 measured as percentage of necrotic cells by biparametric PI/Annexin V assay at 1.6 uM after 8 hrs; format: functional, Homo sapiens
PC-3 [24] = assay: Induction of apoptosis in PC3 measured as percentage of late apoptotic cells by biparametric PI/Annexin V assay at 1.6 uM after 48 hrs; format: functional, Homo sapiens
PC-3 [25] = assay: Induction of apoptosis in PC3 measured as percentage of late apoptotic cells by biparametric PI/Annexin V assay at 1.6 uM after 4 hrs; format: functional, Homo sapiens
PC-3 [26] = assay: Induction of apoptosis in PC3 measured as percentage of early apoptotic cells by biparametric PI/Annexin V assay at 1.6 uM after 8 hrs; format: functional, Homo sapiens
PC-3 [27] = assay: Induction of apoptosis in PC3 cells measured as percentage of living cells by biparametric PI/Annexin V assay at 1.6 uM after 4 hrs; format: functional, Homo sapiens
PC-3 [28] = assay: Induction of apoptosis in PC3 cells measured as percentage of living cells by biparametric PI/Annexin V assay at 1.6 uM after 24 hrs; format: functional, Homo sapiens
PC-3 [29] = assay: Induction of apoptosis in PC3 measured as percentage of early apoptotic cells by biparametric PI/Annexin V assay at 1.6 uM after 24 hrs; format: functional, Homo sapiens
PC-3 [30] = assay: Induction of apoptosis in PC3 cells measured as percentage of living cells by biparametric PI/Annexin V assay at 1.6 uM after 48 hrs; format: functional, Homo sapiens
PC-3 [31] = assay: Induction of necrosis in PC3 cells by DNA fragmentation assay; format: functional, cell-based; conditions: Homo sapiens
PC-3 [32] = assay: Induction of apoptosis in PC3 cells measured as percentage of living cells by biparametric PI/Annexin V assay at 1.6 uM after 8 hrs; format: functional, Homo sapiens
PC-3 [33] = assay: Induction of apoptosis in PC3 measured as percentage of late apoptotic cells by biparametric PI/Annexin V assay at 1.6 uM after 24 hrs; format: functional, Homo sapiens
PC-3 [34] = assay: Induction of apoptosis in PC3 measured as percentage of early apoptotic cells by biparametric PI/Annexin V assay at 1.6 uM after 48 hrs; format: functional, Homo sapiens
PC-3 [35] = assay: Induction of apoptosis in PC3 measured as percentage of necrotic cells by biparametric PI/Annexin V assay at 1.6 uM after 4 hrs; format: functional, Homo sapiens
PC-3 [36] = assay: Induction of apoptosis in PC3 measured as percentage of necrotic cells by biparametric PI/Annexin V assay at 1.6 uM after 48 hrs; format: functional, Homo sapiens
PC-3 [37] = assay: Induction of apoptosis in PC3 measured as percentage of late apoptotic cells by biparametric PI/Annexin V assay at 1.6 uM after 8 hrs; format: functional, Homo sapiens

## CN(C)CCn1c(=O)c2ccc(NCCCN(C)CCCN3C(=O)c4cccc5cccc(c45)C3=O)c3c(=O)c4ccccc4n(c1=O)c23
[1]
  Selectivity ratio: 2.4
PC-3 [2]
  LC50 (concentration for 50% net cell kill): 2600 nM

## CN(C)CCNC(=O)c1ccc(NCCCN(C)CCCN2C(=O)c3cccc4cccc(c34)C2=O)c2c(O)c3cc([N+](=O)[O-])ccc3nc12
[1]
  Selectivity ratio: 1.4
PC-3 [2]
  GI50: 89 nM
  LC50 (concentration for 50% net cell kill): 3000 nM
  TGI: 630 nM

## CN(C)CCNC(=O)c1ccc(NCCNCCNCCN2C(=O)c3cccc4cccc(c34)C2=O)c2c(O)c3cc([N+](=O)[O-])ccc3nc12
PC-3 [2]
  GI50: 62 nM
  LC50 (concentration for 50% net cell kill): 2500 nM
  TGI: 390 nM

## COc1ccc2c(c1)c(=O)c1c(NCCCN(C)CCCN3C(=O)c4cccc5cccc(c45)C3=O)ccc3c(=O)n(CCN(C)C)c(=O)n2c31
[1]
  Selectivity ratio: 4.5
PC-3 [2]
  GI50: 51 nM
  LC50 (concentration for 50% net cell kill): 4000 nM
  TGI: 850 nM

## CN(C)CCNC(=O)c1ccc(NCCCN(C)CCCN2C(=O)c3cccc4cccc(c34)C2=O)c2c(O)c3ccccc3nc12
[1]
  Selectivity ratio: 4.1
PC-3 [2]
  GI50: 520 nM
  LC50 (concentration for 50% net cell kill): 5400 nM
  TGI: 2000 nM

## CN(C)CCCn1c(=O)c2ccc(NCCCN(C)CCCN3C(=O)c4cccc5cc([N+](=O)[O-])cc(c45)C3=O)c3c(=O)c4ccccc4n(c1=O)c23
[1]
  Selectivity ratio: 20
PC-3 [2]
  GI50: 1700 nM
  LC50 (concentration for 50% net cell kill): 6600 nM
  TGI: 3200 nM

## CN(C)CCNC(=O)c1ccc(NCCCN(C)CCCNc2ccc3c(=O)n(CCN(C)C)c(=O)n4c5ccccc5c(=O)c2c34)c2c(O)c3ccccc3nc12
[1]
  Selectivity ratio: 1.3
PC-3 [2]
  GI50: 100 nM
  LC50 (concentration for 50% net cell kill): 8300 nM
  TGI: 1000 nM

## CN(C)CCn1c(=O)c2ccc(NCCCN(C)CCCN3C(=O)c4cccc5cc([N+](=O)[O-])cc(c45)C3=O)c3c(=O)c4ccccc4n(c1=O)c23.Cl
PC-3 [3]
  Activity: 67.7%
PC-3 [4]
  Activity: 4%
PC-3 [5]
  Activity: 7.5%
PC-3 [6]
  Activity: 16.3%
PC-3 [7]
  Activity: Time-dependent effect
PC-3 [8]
  Activity: 33.6%
PC-3 [9]
  Activity: 16.3%
PC-3 [10]
  Activity: 87.3%
[1]
  Selectivity ratio: 4.3
PC-3 [11]
  Activity: 12.5%
PC-3 [12]
  Activity: Active
PC-3 [13]
  Activity: 49%
PC-3 [14]
  Activity: 1.2%
PC-3 [15]
  Activity: 28.6%
PC-3 [16]
  Activity: 26.9%
PC-3 [17]
  Activity: 3.5%
PC-3 [18]
  Activity: 31.5%
PC-3 [2]
  LC50 (concentration for 50% net cell kill): 2600 nM
PC-3 [19]
  Activity: 7.8%
PC-3 [20]
  Activity: 6.3%

## CN(C)CCCn1c(=O)c2ccc(NCCCN(C)CCCN3C(=O)c4cccc5cccc(c45)C3=O)c3c(=O)c4ccccc4n(c1=O)c23
[1]
  Selectivity ratio: 3.4
PC-3 [2]
  GI50: 420 nM
  LC50 (concentration for 50% net cell kill): 3800 nM
  TGI: 830 nM

## COc1ccc2c(c1)c(=O)c1c(NCCCN(C)CCCN3C(=O)c4cccc5cc([N+](=O)[O-])cc(c45)C3=O)ccc3c(=O)n(CCN(C)C)c(=O)n2c31
[1]
  Selectivity ratio: 4.8
PC-3 [2]
  GI50: 83 nM
  LC50 (concentration for 50% net cell kill): 9300 nM
  TGI: 500 nM

## CN(C)CCNC(=O)c1ccc(NCCCN(C)CCCN2C(=O)c3cccc4cc([N+](=O)[O-])cc(c34)C2=O)c2c(O)c3ccccc3nc12
[1]
  Selectivity ratio: 7.1
PC-3 [2]
  GI50: 600 nM
  LC50 (concentration for 50% net cell kill): 4400 nM
  TGI: 1000 nM

## CN(C)CCCNC(=O)c1ccc(NCCCN(C)CCCNc2ccc3c(=O)n(CCCN(C)C)c(=O)n4c5ccccc5c(=O)c2c34)c2c(O)c3ccccc3nc12
[1]
  Selectivity ratio: 14
PC-3 [2]
  GI50: 250 nM
  LC50 (concentration for 50% net cell kill): 2500 nM
  TGI: 600 nM

## COc1cc2nc3c(C(=O)NCCN(C)C)ccc(NCCCN(C)CCCN4C(=O)c5cccc6cccc(c56)C4=O)c3c(O)c2cc1OC
[1]
  Selectivity ratio: 1.3
PC-3 [2]
  GI50: 150 nM
  LC50 (concentration for 50% net cell kill): > 50000 nM
  TGI: 3800 nM

## CN(C)CCN1C(=O)c2cccc3cc([N+](=O)[O-])cc(c23)C1=O [MITONAFIDE]
PC-3 [2]
  GI50: 150 nM
  TGI: 3800 nM

## CN(C)CCCNC(=O)c1ccc(NCCCN(C)CCCN2C(=O)c3cccc4cc([N+](=O)[O-])cc(c34)C2=O)c2c(O)c3ccccc3nc12
[1]
  Selectivity ratio: 6.1
PC-3 [2]
  GI50: 50 nM
  LC50 (concentration for 50% net cell kill): 3600 nM
  TGI: 90 nM

## CN(C)CCNC(=O)c1ccc(NCCCN(C)CCCN2C(=O)c3cccc4cc([N+](=O)[O-])cc(c34)C2=O)c2c(O)c3cc([N+](=O)[O-])ccc3nc12
[1]
  Selectivity ratio: 2.1
PC-3 [2]
  GI50: 8 nM
  LC50 (concentration for 50% net cell kill): 4100 nM
  TGI: 1300 nM

## CN(C)CCCNC(=O)c1ccc(NCCCN(C)CCCN2C(=O)c3cccc4cccc(c34)C2=O)c2c(O)c3ccccc3nc12
[1]
  Selectivity ratio: 6.9
PC-3 [2]
  GI50: 600 nM
  LC50 (concentration for 50% net cell kill): 4100 nM
  TGI: 990 nM

## CN(C)CCNC(=O)c1ccc(NCCCN(C)CCCNc2ccc3c(=O)n(CCN(C)C)c(=O)n4c5ccccc5c(=O)c2c34)c2c(O)c3cc([N+](=O)[O-])ccc3nc12.Cl
PC-3 [21]
  Activity: 1.9%
PC-3 [22]
  Activity: 44%
PC-3 [23]
  Activity: 37.9%
PC-3 [24]
  Activity: 35.2%
PC-3 [7]
  Activity: Time-dependent effect
PC-3 [25]
  Activity: 3%
PC-3 [26]
  Activity: 3.6%
PC-3 [27]
  Activity: 66.5%
PC-3 [28]
  Activity: 37.5%
[1]
  Selectivity ratio: 1.9
PC-3 [29]
  Activity: 2.9%
PC-3 [30]
  Activity: 5%
PC-3 [31]
  Activity: Active
PC-3 [32]
  Activity: 53%
PC-3 [33]
  Activity: 15.6%
PC-3 [34]
  Activity: 4.1%
PC-3 [35]
  Activity: 28.6%
PC-3 [2]
  GI50: 7 nM
  LC50 (concentration for 50% net cell kill): 1600 nM
  TGI: 160 nM
PC-3 [36]
  Activity: 55.7%
PC-3 [37]
  Activity: 5.5%

## COc1cc2c(=O)c3c(NCCCN(C)CCCN4C(=O)c5cccc6cc([N+](=O)[O-])cc(c56)C4=O)ccc4c(=O)n(CCN(C)C)c(=O)n(c2cc1OC)c43
[1]
  Selectivity ratio: 1.6
PC-3 [2]
  GI50: 17 nM
  LC50 (concentration for 50% net cell kill): 4000 nM
  TGI: 340 nM
